Patent US12600740B2, “Fluorinated N-acetyl glucosamine analogs and xylose derivatives” (UTI Limited Partnership, priority 2018, dated 2026)
Entries after “also recorded” stand apart in the source; their conditions may differ.

Experiments:
[1] = system: CSPG production by astrocytes; experiment: Western blot of astrocyte conditioned medium, MAB2030 (chondroitin sulfate GAG stubs); type: cell-based, mouse; settings: astrocyte conditioned media, 50 μM, 48 hours
Source text: Astrocytes are major producers of CSPGs following injury in the CNS [Jones, L. L., Margolis, R. U. & Tuszynski, M. H. The chondroitin sulfate proteoglycans neurocan, brevican, phosphacan, and versican are differentially regulated following spinal cord injury. Experimental Neurology 182, 399-411 (2003); Tang, X., Davies, J. E. & Davies, S. J. Changes in distribution, cell associations, and protein expression levels of NG2, neurocan, phosphacan, brevican, versican V2, and tenascin-C during acute to chronic maturation of spinal cord scar tissue. […] The Journal of neuroscience: the official journal of the Society for Neuroscience 20, 2427-2438 (2000); McKeon, R. J., Jurynec, M. J. & Buck, C. R. The chondroitin sulfate proteoglycans neurocan and phosphacan are expressed by reactive astrocytes in the chronic CNS glial scar. The Journal of neuroscience: the official journal of the Society for Neuroscience 19, 10778-10788 (1999); Haas, C. A., Rauch, U., Thon, N., Merten, T. & Deller, T. Entorhinal cortex lesion in adult rats induces the expression of the neuronal chondroitin sulfate proteoglycan neurocan in reactive astrocytes. The Journal of neuroscience: the official journal of the Society for Neuroscience 19, 9953-9963 (1999)] and they may help drive progression of disability in a model of progressive MS [Mayo, L. et al. Regulation of astrocyte activation by glycolipids drives chronic CNS inflammation. Nature medicine 20, 1147-1156 (2014)]. Therefore astrocytes were used as model cells to determine the ability of the sugar analogs to reduce synthesis of CSPGs. Since CSPGs are exported out of cells, the conditioned media from analog-treated astrocytes were probed by Western blots (FIG. 4). We used antibodies to both the stubs of chondroitin sulfate GAGs attached to the core protein (MAB2030) and to intact 4-sulfated chondroitin sulfate sidechains (2H6) (FIG. 4a). Particularly, we used the 2H6 antibody to label intact 4-sulfated chondroitin sulfate sidechains, and the MAB2030 antibody to detect the stubs of chondroitin sulfate GAGs attached to the core protein. […] 1998, 160 (8), 3812-3819. Poole Poole C. A.; Glant T. T.; Schofield J. R.; Chondrons from articular cartilage. (IV). Immunolocalization of proteoglycan epitopes in isolated canine tibial chondrons. J. Histochem. Cytochem. 1991, 39 (9), 1175-1187].
Astrocytes were plated in uncoated 6-well plates (3 replicate wells per treatment) at 1×10^6 cells/well in mixed glial media, and incubated at 5% CO2 and 37° C. Astrocytes were treated with compounds at 50 μM in AIM-V media for 48 hours. Media was pooled from 3 replicate wells in 15 ml 100K cutoff centricon tubes (EMD Millipore, #UFC905008), which were spun on an ultracentrifuge at 5000× g for 2 cycles of 10 minutes each. When harvested, the cell lysate was kept on ice for 5 minutes with 250 μL of RIPA buffer (ThermoFisher Scientific #89900) containing proteinase inhibitor, and then collected and centrifuged at 14000 g for 5 minutes. Total protein was quantified using a Bradford assay. Conditioned media that were to be probed for chondroitin 4-sulfate GAGs (Millipore, #MAB2030) were first digested with 0.2 U/ml chondroitinase ABC for overnight at 37° C. to remove chondroitin sulfate sidechains. Blots that were to be probed with CSA (2H6, Cosmo) or CS56 (Abcam #ab11570) were not exposed to chondroitinase ABC. Samples were heat denatured with NuPAGE® LDS Sample buffer at 70° C. for 10 minutes and then loaded into 3-8% tris-acetate pre-cast gels (ThermoFisher, #EA0478BOX). The gels were electrophoresed at a constant 150 V for 90 minutes and transferred to a […] polyvinylidene fluoride membrane at a constant 250 mA for 60 minutes. The membranes were blocked for one hour with 10% skim milk in Tris-buffered saline (TBS; 0.9% NaCl, 10 mM Tris-HCl, pH 7.5) containing 0.5% Tween 20 (TBS-T). Primary antibodies were added in 3% skim milk and incubated overnight at 4° C. […]

splenocytes [2] = experiment: Splenocyte thymidine proliferation assay (anti-CD3/anti-CD28); type: cell-based, mouse; settings: 25 μM, 48 hours
Protocol: It was assessed whether the glucosamine analogs have immunomodulatory properties on splenocytes isolated in culture. T cells within the splenocyte pool were polyclonally activated with anti-CD3 and anti-CD28 antibodies in the presence of compounds for 48 hours, and proliferation was determined by the uptake of tritiated thymidine and expressed as counts per minute. The relative change in proliferation of treated versus control splenocytes was taken in order to rank the compounds across multiple independent experiments (FIG. 8a).
The spleens were isolated from 8-10-week-old female C57BL/6 mice and homogenized. The cells were isolated by Ficoll gradient and spun for 30 min at 1,800 r.p.m. The cell suspension was removed and the cells were washed once with PBS. The cell pellet was subsequently re-suspended in Roswell Park Memorial Institute media containing 10% fetal bovine serum, 1% penicillin/streptomycin, 1% sodium pyruvate and 1% L-glutamine. Trypan blue exclusion was used to count live cells, and the cells were plated at 2.5×10^5 cells per well in a round-bottom 96-well plate and activated with 1,000 ng/ml plate-bound anti-CD3 and 1,000 ng/ml anti-CD28 suspended in media to preferentially activate T lymphocytes. Compounds were added at final concentrations of 25 μM. The cells were kept at 37° C. and 5% CO2 for 30 h, after which 10 μl/well (1 μCi per well) of 3H-thymidine was added for 18 h. The cells containing thymidine were harvested onto filter mats using a cell harvester and mats were allowed to dry for 24 h. The results were read by liquid scintillation counts.

TNFα = TNFα ELISA of LPS-stimulated bone marrow-derived macrophages; type: cell-based, mouse; settings: BMDMs, 50 μM, LPS 100 ng/ml, 24 hours
Protocol: Multiple Sclerosis: Mechanisms and Immunotherapy. Neuron 97, 742-768 (2018)]. It was tested whether the sugar analogs could affect the activity of macrophages, using bone marrow-derived macrophages (BMDMs) stimulated with lipopolysaccharide (LPS, 100 ng/ml). The sugar analogs were added at 50 μM prior to LPS, and the conditioned medium was collected after 24 hours and assayed for levels of the secreted cytokine TNFα. […] Testing Toxicity of Sugar Analogs
Femurs were carefully removed from euthanized female C57BI/6 mice, and marrow was flushed into a culture plate with cold complete bone marrow growth medium (DMEM, 10% fetal bovine serum, and the supplements 1% penicillin/streptomycin, 1% glutamine, 1% non-essential amino acids, and 10% supernatant from L929 cell-line enriched in macrophage-colony stimulating factor). Cells were spun at 1100 rpm for 10 minutes, resuspended in fresh growth medium and plated at 10×10^6 cells/ml in a 10 cm culture dish. Cells were grown in DMEM with supplements and L929 supernatant for 5 days, then half the medium was replaced with fresh growth medium. On day 7 growth medium was replaced with DMEM with 10% FBS and supplements. Cells were used on day 8, and experiments were conducted in DMEM with 1% FBS and supplements unless otherwise specified.
BMDM were plated at 25,000 cells in 96-well plates in DMEM+L929 media. After 24 hours media was changed to DMEM+1% FBS. One hour later, cells were treated with […] compounds or PBS. After 1 hour LPS (final concentration 100 ng/ml) was added. Following 24 hours, conditioned media was harvested for TNFα ELISA (Thermo Scientific), which was performed according to manufacturer's instructions.

[3] = system: mice demyelinated with lysolecithin; experiment: Lysolecithin demyelination of the mouse spinal cord; type: in vivo; settings: 100 mg/kg IP twice a day, Day 3 to Day 6; Day 7 post-demyelination; listed as difluorosamine
Protocol: On Day 0, 7 mice were injected with 0.5 μL of 1.0% lysolecithin in the ventral funiculus of the spinal cord. Thereafter, 4 mice were treated from Day 3 to Day 6 with saline vehicle IP twice a day. 3 mice were treated from Day 3 to Day 6 with difluorosamine 100 mg/kg IP twice a day. On Day 7, mice were transcardially perfused with cold PBS and 4% PFA. Thoracic spinal cords were dissected, fixed and analyzed. Sections adjacent to lesion epicenters were triple-stained for Olig2 (cells of the oligodendrocyte lineage), PDGFRα (oligodendrocyte precursor cell) and MBP (myelin). The number of Olig2+, Olig2+ PDGFRα+ (oligodendrocyte precursor cell), and Olig2+ PDGFRα− (presumed mature oligodendrocytes) cells per field of view were quantified blindly. Statistics were conducted using 1-tailed t-tests.

splenocytes [4] = experiment: Propidium iodide DNA cell cycle flow cytometry of splenocytes; type: cell-based, mouse; settings: activated splenocytes
Source text: Cell-cycle flow cytometry with propidium iodide was used to corroborate the above results, and ensure the reduction in proliferation was not due to cell death. […] To further investigate whether the reduction of proliferation was due to cell death, Annexin V and propidium iodide staining were used to differentiate necrotic cells (propidium iodide+), apoptotic cells (annexin V+), dead cells (propidium iodide+ and annexin V+), and live cells (propidium iodide-annexin V−).
Cell cycle staining with propidium iodide (PI) and analysis by flow cytometry gives percentage of cells in apoptosis, G1, G2, and synthesis, and apoptosis. Following a membrane permeabilization, PI chelates to DNA and level of staining specifies the stage of the cell cycle (e.g., G2 phase will have twice the DNA and thus twice the PI signal as G1 phase, apoptotic cells contain less DNA than healthy cells and are identified by low PI staining). 1×10^6 splenocytes were used per sample, with four replicates per condition. Cells were collected into a tube with PBS and centrifuged (200 r.p.m. for 5 minutes). […] Suspension was transferred to a FACs tube and analyzed. Annexin V/Propidium iodide staining was detected using the Annexin V FITC apoptosis detection kit (BD Biosciences, #556547), which was performed according to manufacturer's instructions.

## CCC(=O)OCC1OC(O)C(NC(C)=O)C(OC(=O)CC)[C@@H]1F (mixture of isomers) [Compound 11, 2-Acetamido-2,4-dideoxy-4-fluoro-3,6-di-O-propanoyl-α/β-D-glucopyranose]
[1]
  effect on CSPG production by astrocytes: did not lower CSPG production in astrocytes
Splenocytes [2]
  splenocyte proliferation: reduced splenocyte proliferation
TNFα
  TNFα production by LPS-stimulated macrophages: enhanced TNFα levels

## CC(=O)NC1C(OC(C)=O)OC(COC(C)=O)C(F)(F)C1OC(C)=O [Compound 16, 2-Acetamido-1,3,6-tri-O-acetyl-2,4-dideoxy-4,4-difluoro-α/β-D-xylo-hexopyranose]
[3]
  percentage of Olig2+ oligodendrocyte lineage cells that are Olig2+ PDGFRα+ OPCs: significant increase; also recorded: increased the proportion of oligodendrocyte precursor cells (OPCs)

## CC(=O)NC1C(O)OC(COC(C)=O)[C@@H](F)C1OC(C)=O (stereo in doubt) [Compound 10]
Splenocytes [4]
  percentage of cells in cell cycle phases: reduced the percentage of cells in the S (DNA synthesis)-phase of the cell cycle
